# Legend:
# BRD4 [1] = target: T1, BRD4 (Mus musculus, UniProt Q9ESU6); assay: Immunoblot analysis of BRD4 degradation in 4T1 cells after DePLT or PMP treatment; assay type: cell-based, murine; conditions: 2-h HAI pretreatment, 1×10^8 iDePLTs 12 h
# T1 construct: endogenous in cells; host or cells: 4T1
# Protocol: (§1) Immunoblot analysis: Immunoblot analysis was used to evaluate the expression of BRD4, HSP90, HSP90a, and PD-L1 in 4T1, WT MDA-MB-231, HSP90α-KO MDA-MB-231 or PEA-10 cells after various treatments and also served as the detection method for IP or co-IP experiments. The procedures for preparing IP or co-IP samples were indicated in the relevant experimental parts.
# (§2) Sample preparation for 4T1 cells after DePLT treatment: 4T1 cells were seeded in 6-well culture plates with a density 5×10^4 cells in each well and cultured for 24 h. The engineered platelets, including iDePLT and eDePLT, were generated by incubating the fresh platelets in PBS containing iHAC or eHAC at 20 μM for 2 h. The fresh nPLT was used as the control. Then, if HAI pretreatment was performed, the cells were incubated in the HAI-containing blank medium at different concentrations for 2 h and washed with PBS twice before the following treatments. […]
# (§3) General procedures for immunoblot analysis: After a 30-min lysis, the lysates were centrifuged at 10,000 g for 10 minutes at 4° C., and the corresponding supernatants were collected, followed by quantification of the total proteins in the supernatant through the BCA assay. […] Finally, the bands were treated with electrochemiluminescence (ECL) western blot substrate, detected by the iBright™ imaging system and quantified with ImageJ software. […]
# WT MDA-MB-231 cells = assay: In-gel fluorescence detection of NA-647 internalization in WT MDA-MB-231 cells; assay type: cell-based, human; conditions: WT MDA-MB-231, 2-h HAI at various concentrations prior to HAC-B 5 μM 4 h
# Protocol: In-gel fluorescence detection: In-gel fluorescence was mainly used to investigate the internalization of NeutrAvidin™_647 in HAC-B-treated cancer cells.
# Sample preparation: 4T1 or WT MDA-MB-231 cells were seeded in 6-well culture plates with a density of 5×10^4 cells in each well and cultured for 24 h. If HAI pretreatment was performed, the cells were incubated in the HAI-containing blank medium at different concentrations for 2 h and washed with PBS twice before the following treatments. Then, the cells were treated with free HAC-B or the combinations of various ligands at the indicated concentrations for the predetermined time points. Next, the drug-containing medium was removed, and PBS was used to wash the cells twice, followed by incubating the cells in the blank medium containing NeutrAvidin™ DyLight™ 650 (NA-647, Invitrogen/84607) at 0.5 μM for 1 h. Finally, the cells were washed with PBS and lysed on ice with the RIPA buffer containing PMSF (1 mM) and the phosphatase inhibitor cocktail for 30 min. A s for the 4T1 cells cotreated with NA-647 and HAC-B, the cells after 24-h incubation were treated with the blank medium containing NA-647 at 0.5 μM and HAC-B at various concentrations for 2 h before cell lysis.
# In-gel fluorescence imaging: After 30-min lysis, the lysates were centrifuged at 10,000 g for 10 minutes at 4° C., and the corresponding supernatants were collected, followed by quantification of the total proteins in the supernatant through the BCA assay. Afterward, the proteins in the supernatant were mixed with ¼ volume of 5× sample buffer formulated by Tris-HCl (pH 6.8, 312.5 mM), sucrose (25%), SDS (10%), bromophenol blue (0.025%), and dithiothreitol (DTT, 250 mM). After incubation for 1 h at room temperature, equal amounts of proteins from different samples ([…] per lane) were loaded into the 12% Bis-Tris gel. After the proteins were separated, the gels were subjected to fluorescence imaging with the ChemiDoc™ MP imaging system (Bio-Rad).
# BRD4 [2] = target: T1, BRD4; assay: Immunoblot analysis of BRD4 degradation in 4T1 cells after free HAC treatment; assay type: cell-based, murine; conditions: 4T1 cells, 2-h HAI pretreatment at various concentrations, then iHAC 10 μM 12 h
# From the text: as §1
# Sample preparation for various cancer cells after free HAC treatment: Various cells, including 4T1, WT MDA-MB-231, HSP90α-KO MDA-MB-231, or PEA-10 cells, were seeded in 6-well culture plates with a density of 5×10^4 cells in each well and cultured for 24 h. Then, if HAI pretreatment was performed, the cells were incubated in the HAI-containing blank medium at different concentrations for 2 h and washed with PBS twice before the following treatments. The medium in the corresponding wells was replaced with 1 mL of blank medium containing the DMSO vehicle, HACs, or the combinations of various free ligands at the predetermined concentrations. After incubation for the indicated time points, cells were washed with PBS and lysed on ice with the relevant lysis buffer containing PMSF (1 mM) and the phosphatase inhibitor cocktail for 30 min. As for the conditioned medium (CM), the culturing complete medium of the corresponding cancer cells in each well was collected after 24-h incubation and subjected to centrifugation at 2000 rpm for 5 min to obtain the supernatant. The filtrate of the supernatants was collected following filtration over a 0.45 μm filter, serving as the CM. Regarding the cell samples for BRD4 detection, the lysis buffer containing HEPES-KOH (pH=7.5, 10 mM), NaCl (500 mM), EDTA (5 mM), NP-40 (1%), and SDS (0.1%) was used with the indicated PMSF and phosphatase inhibitor cocktail. As for PD-L1 detection, RIPA buffer (Thermo Fisher Scientific/J63306.AP) was used with the indicated PMSF and phosphatase inhibitor cocktail.
# General procedures for immunoblot analysis: After a 30-min lysis, the lysates were centrifuged at 10,000 g for 10 minutes at 4° C., and the corresponding supernatants were collected, followed by quantification of the total proteins in the supernatant through the BCA assay. Afterward, the proteins in the supernatant were mixed with the loading buffer and heated at 95° C. for 15 min. Equal amounts of proteins from different samples ([…]) were loaded into the Bis-Tris gel formulated with Bis-Tis buffer, 30% acrylamide/Bis, 10% ammonium persulfate (APS) solution, and TEMED. The separated proteins were transferred to polyvinylidene fluoride (PVDF) membranes before the membranes were blocked with 5% nonfat milk in PBS-T. Next, the PVDF membranes were incubated with primary antibodies overnight at 4° C., if necessary, followed by the incubation with the goat-anti-rabbit IgG H & L (HRP) secondary antibodies at room temperature for 2 h. Finally, the bands were treated with electrochemiluminescence (ECL) western blot substrate, detected by the iBright™ imaging system and quantified with ImageJ software. 8% Bis-Tris gels were used for BRD4 detection, and 10% gels were adopted to analyze PD-L1.
# PD-L1 = target: T2, PD-L1 (Mus musculus, UniProt Q9EP73); assay: Immunoblot analysis of PD-L1 degradation in 4T1 cells after eDePLT treatment; assay type: cell-based, murine; conditions: 2-h HAI pretreatment, 1×10^8 eDePLTs 8 h
# T2 construct: endogenous in cells; host or cells: 4T1
# Protocol: as §1, §2, §3
# T2 sequence (Q9EP73 19-290): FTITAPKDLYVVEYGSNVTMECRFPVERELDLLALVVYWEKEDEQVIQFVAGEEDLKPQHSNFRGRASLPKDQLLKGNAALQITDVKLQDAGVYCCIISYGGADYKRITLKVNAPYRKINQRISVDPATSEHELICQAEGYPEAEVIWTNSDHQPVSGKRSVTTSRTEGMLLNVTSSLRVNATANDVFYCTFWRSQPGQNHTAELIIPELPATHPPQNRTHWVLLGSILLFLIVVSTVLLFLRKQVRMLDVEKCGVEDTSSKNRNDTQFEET
structure (smiles),measurement,setting,value
"Nc1ncnc2c1nc(Sc1cc3c(cc1I)OCO3)n2CCCNCc1cccc(S(=O)(=O)F)c1 [HAI, 3-(((3-(6-amino-8-((6-iodobenzo[d][1,3]dioxol-5-yl)thio)-9H-purin-9-yl)propyl)amino)methyl)benzenesulfonyl fluoride]",BRD4 downregulation by iDePLT after HAI pretreatment of target cells,BRD4 [1],failed to relieve BRD4 downregulation
same,NA-647 uptake by HAC-B after HAI preincubation,WT MDA-MB-231 cells,largely compromised NA-647 uptake
same,BRD4 degradation by iHAC after HAI pretreatment,BRD4 [2],inferior BRD4 degradation efficacy
same,PD-L1 degradation by eDePLT after HAI pretreatment of target cells,PD-L1,failed to rescue the PD-L1 degradation

# Source: patent publication US20250327028A1, “ENGINEERED PLATELETS AS TARGETED PROTEIN DEGRADERS” (Wisconsin Alumni Research Foundation, priority 2024, published 2025)
